Assay results published in patent US20130029967A1, “Fused Imidazo [3,2 - D] Pyrazines as P13 Kinase Inhibitors” (Centro Nacional de Investigaciones Oncologicas (CNIO), priority 2009, published 2013).

tested on: phospho-AKT (Ser473) in Osteosarcoma U2OS cells; experiment: PI3K cellular activity, ELISA (phospho-AKT Ser473); format: cell-based; settings: Homo sapiens, cellular p-AKT
Method: Cell culture: The cell lines were obtained from the American Type Culture Collection (ATCC). U2OS (human osteosarcoma) was cultured in Dulbecco's modified Eagle's medium (DMEM). PC3 (human prostate carcinoma), MCF7 (human breast cardinoma), HCT116 (human colon carcinoma), […], U251 (human glyoblastoma) were grown in RPMI. All media were supplemented with 10% fetal bovine serum (FBS) (Sigma) and antibiotics-antimycotics. Cell were maintained in a humidified incubator at 37° C. with 5% CO2 and passaged when confluent using trypsin/EDTA.
Activity was measured as endogenous levels of phospho-AKT (Ser473) protein. Osteosarcoma U2OS cells were plated in 96 Poly-D-Lysine coating tissue culture plates (18.000 cells/well). After the treatment with serial dilutions of the compound during 3 h, the cells were fixed directly in the wells with 4% paraformaldehide. After fixing, individual wells went through the same series of steps used for a conventional immunoblot: including blocking with 5% BSA, incubation with 1/1000 of primary antibody-AKT ([…]) in PBS containing 5% BSA at 4° C. overnight (Cell Signalling), washing and incubation with second antibody HRP-anti-mouse IgG for 1 h at RT (Amersham). After the addition of SuperSignal ELISA Femto maximum sensitivity chemiluminescent substrate (Pierce) the results were read in a luminescence plate reader (Victor).

SMILES	IC50
Nc1ncc(-c2cn3c4c(nc3c(N3CCOCC3)n2)CCN(C(=O)NC2CCCC2)C4)cn1 [2-66]	546 nM
CCCNC(=O)N1CCc2nc3c(N4CCOCC4)nc(-c4cnc(N)nc4)cn3c2C1 [2-53]	564 nM
Nc1ncc(-c2cn3c4c(nc3c(N3CCOCC3)n2)CN(C(=O)C2CC2)CC4)cn1 [6-24]	218 nM
COc1ccc(NC(=O)N2CCc3nc4c(N5CCOCC5)nc(-c5cnc(N)nc5)cn4c3C2)cc1 [2-102]	541 nM
CCNC(=O)N1CCc2nc3c(N4CCOCC4)nc(-c4cnc(N)nc4)cn3c2C1 [2-38]	1230 nM

target: T1, PI3K (p110α/p85α) (Homo sapiens, UniProt P42336); experiment: PI3K activity assay (ADP Hunter Plus); format: biochemical; settings: PI3Kα; class symbols; read-out: PI3K α IC50 (semi-quantitative)
T1 construct: purchased Carna Biosciences 07CBS-0402A
T1 sequence (P42336 whole entry): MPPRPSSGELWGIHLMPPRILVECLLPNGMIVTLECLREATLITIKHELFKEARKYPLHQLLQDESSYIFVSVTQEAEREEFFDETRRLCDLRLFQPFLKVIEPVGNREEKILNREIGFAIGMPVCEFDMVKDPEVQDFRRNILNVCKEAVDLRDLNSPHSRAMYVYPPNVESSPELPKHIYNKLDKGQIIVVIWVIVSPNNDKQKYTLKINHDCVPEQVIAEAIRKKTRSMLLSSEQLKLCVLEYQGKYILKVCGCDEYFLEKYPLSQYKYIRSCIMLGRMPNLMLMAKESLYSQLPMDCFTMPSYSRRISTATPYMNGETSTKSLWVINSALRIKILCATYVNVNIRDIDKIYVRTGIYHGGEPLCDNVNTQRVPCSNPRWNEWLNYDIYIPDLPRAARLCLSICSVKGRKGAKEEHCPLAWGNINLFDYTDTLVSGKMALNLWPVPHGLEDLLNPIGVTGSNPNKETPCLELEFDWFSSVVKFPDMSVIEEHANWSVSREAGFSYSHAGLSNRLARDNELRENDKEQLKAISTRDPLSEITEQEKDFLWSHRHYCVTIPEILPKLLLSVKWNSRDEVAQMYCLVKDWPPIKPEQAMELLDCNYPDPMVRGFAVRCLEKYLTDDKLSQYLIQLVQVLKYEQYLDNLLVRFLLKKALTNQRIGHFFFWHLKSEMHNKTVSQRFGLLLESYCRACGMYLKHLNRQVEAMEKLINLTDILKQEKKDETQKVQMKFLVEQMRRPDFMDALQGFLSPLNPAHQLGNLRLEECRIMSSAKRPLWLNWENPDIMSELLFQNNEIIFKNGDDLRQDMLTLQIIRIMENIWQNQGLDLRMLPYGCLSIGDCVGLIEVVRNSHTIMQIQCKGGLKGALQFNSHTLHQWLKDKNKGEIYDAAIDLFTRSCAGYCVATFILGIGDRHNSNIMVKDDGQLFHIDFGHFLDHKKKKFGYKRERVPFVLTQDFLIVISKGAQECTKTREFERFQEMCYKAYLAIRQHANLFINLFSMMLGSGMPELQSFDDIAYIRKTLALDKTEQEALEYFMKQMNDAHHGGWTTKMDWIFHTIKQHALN
T1 sequence (P27986 whole entry partner): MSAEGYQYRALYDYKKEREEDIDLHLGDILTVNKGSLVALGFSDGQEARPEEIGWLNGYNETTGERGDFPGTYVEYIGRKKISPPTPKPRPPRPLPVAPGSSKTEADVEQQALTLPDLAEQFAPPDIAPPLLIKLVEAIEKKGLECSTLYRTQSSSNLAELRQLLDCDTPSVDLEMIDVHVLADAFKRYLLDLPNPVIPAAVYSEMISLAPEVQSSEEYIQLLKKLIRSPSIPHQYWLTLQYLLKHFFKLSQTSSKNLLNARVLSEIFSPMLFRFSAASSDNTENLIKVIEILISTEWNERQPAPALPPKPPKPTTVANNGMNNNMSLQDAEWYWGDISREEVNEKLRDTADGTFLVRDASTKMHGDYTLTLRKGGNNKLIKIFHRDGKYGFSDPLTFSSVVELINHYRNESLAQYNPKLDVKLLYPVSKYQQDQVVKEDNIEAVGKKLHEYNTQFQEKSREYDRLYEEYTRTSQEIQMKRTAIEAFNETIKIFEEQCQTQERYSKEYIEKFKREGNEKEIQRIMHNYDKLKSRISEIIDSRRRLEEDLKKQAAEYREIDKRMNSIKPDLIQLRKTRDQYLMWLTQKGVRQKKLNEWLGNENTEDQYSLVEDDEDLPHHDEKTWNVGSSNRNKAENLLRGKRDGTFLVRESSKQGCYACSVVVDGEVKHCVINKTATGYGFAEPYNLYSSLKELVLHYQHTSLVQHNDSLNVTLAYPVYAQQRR
Method: The kinase activity was measured by using the commercial ADP Hunter™ Plus assay available from DiscoveRx (#33-016), which is a homogeneous assay to measure the accumulation of ADP, a universal product of kinase activity. […] Reaction was carried out for 1 hour at 25° C. Reagent A and B were sequentially added to the wells and plates were incubated for 30 min at 37° C. […] Values were normalized against the control activity included for each enzyme (i.e., 100% PI3 kinase activity, without compound). These values were plot against the inhibitor concentration and were fit to a sigmoid dose-response curve by using the Graphed software.

SMILES	IC50
Nc1ncc(-c2cn3c4c(nc3c(N3CCOCC3)n2)CCN(CC2CCOCC2)C4)cn1 [2-36]	> 1000 nM
c1cc(-c2cn3c4c(nc3c(N3CCOCC3)n2)CCN(Cc2ncc[nH]2)C4)c2cn[nH]c2c1 [2-13]	> 1000 nM
CS(=O)(=O)c1ccc(CN2CCc3nc4c(N5CCOCC5)nc(-c5cccc6[nH]ncc56)cn4c3C2)cc1 [2-10]	> 1000 nM
c1cncc(CN2CCc3nc4c(N5CCOCC5)nc(-c5cccc6[nH]ncc56)cn4c3C2)c1 [2-05]	> 1000 nM
CCOC(=O)N1CCc2nc3c(N4CCOCC4)nc(-c4ccc(N)nc4)cn3c2C1 [2-21]	> 1000 nM
CCOC(=O)N1CCc2nc3c(N4CCOCC4)nc(-c4ccc5[nH]ccc5c4)c(Cl)n3c2C1 [2-29]	> 1000 nM
CCOC(=O)N1CCc2nc3c(N4CCOCC4)nc(-c4cccc5[nH]ncc45)cn3c2C1 [2-03, 3-(1H-Indazol-4-yl)-1-morpholin-4-yl-7,8-dihydro-5H-2,4-a,6,9-tetraaza-fluorene-6-carboxylic acid ethyl ester]	> 1000 nM
c1cc(-c2cn3c4c(nc3c(N3CCOCC3)n2)CCN(CC2CCOCC2)C4)c2cn[nH]c2c1 [2-09]	> 1000 nM
c1nc(NCC2CC2)ncc1-c1cn2c3c(nc2c(N2CCOCC2)n1)CCN(CC1CC1)C3 [2-47]	> 1000 nM
CCOC(=O)N1CCc2nc3c(N4CCOCC4)nc(-c4cnc(N)c(C(F)(F)F)c4)cn3c2C1 [2-25]	> 1000 nM
CC(C)NC(=O)N1CCc2nc3c(N4CCOCC4)nc(-c4cnc(N)nc4)cn3c2C1 [2-44]	< 500 nM
CCOC(=O)C1CCC(N2CCc3nc4c(N5CCOCC5)nc(-c5cnc(N)nc5)cn4c3C2)CC1 (stereo not shown) [2-40]	> 1000 nM
CCOC(=O)N1CCc2nc3c(N4CCOCC4)nc(-c4cncnc4)cn3c2C1 [2-41]	> 1000 nM
CCOC(=O)N1CCc2nc3c(N4CCOCC4)nc(-c4cccnc4)c(Cl)n3c2C1 [2-31]	> 1000 nM
CCOC(=O)N1CCc2nc3c(N4CCOCC4)nc(-c4cncc(OC)c4)c(Cl)n3c2C1 [2-30]	> 1000 nM
c1cc(-c2cn3c4c(nc3c(N3CCOCC3)n2)CCN(Cc2nccs2)C4)c2cn[nH]c2c1 [2-06]	> 1000 nM
CCOC(=O)N1CCc2nc3c(N4CCOCC4)nc(-c4c(F)ccc5[nH]ccc45)cn3c2C1 [2-26]	> 1000 nM
c1cc(-c2cn3c4c(nc3c(N3CCOCC3)n2)CCN(CC2CNC2)C4)c2cn[nH]c2c1 [2-14]	> 1000 nM
CCOC(=O)N1CCc2nc3c(N4CCOCC4)nc(-c4ccc5[nH]ccc5c4)cn3c2C1 [2-22]	> 1000 nM
CCOC(=O)N1CCc2nc3c(N4CCOCC4)nc(-c4cccnc4)cn3c2C1 [2-24]	> 1000 nM

same assay, conditions: PI3Kα; quantitative results; read-out: PI3K α IC50

SMILES	IC50
Nc1ncc(-c2cn3c4c(nc3c(N3CCOCC3)n2)CCN(C(=O)NC2CCCC2)C4)cn1 [2-66]	57 nM
CCOC(=O)N1CCc2nc3c(N4CCOCC4)nc(-c4cccc(O)c4)cn3c2C1 [2-01, 3-(3-Hydroxy-phenyl)-1-morpholin-4-yl-7,8-dihydro-5H-2,4-a,6,9-tetraaza-fluorene-6-carboxylic acid ethyl ester]	207 nM
CCOC(=O)N1CCc2nc3c(N4CCOCC4)nc(-c4cnc5[nH]ccc5c4)c(Cl)n3c2C1 [2-28]	1070 nM
CCCNC(=O)N1CCc2nc3c(N4CCOCC4)nc(-c4cnc(N)nc4)cn3c2C1 [2-53]	62 nM
Nc1ncc(-c2cn3c4c(nc3c(N3CCOCC3)n2)CCN(Cc2ccc(OC(F)(F)F)cc2)C4)cn1 [2-100]	310 nM
COc1ccc(NC(=O)N2CCc3nc4c(N5CCOCC5)nc(-c5cnc(N)nc5)cn4c3C2)cc1 [2-102]	70 nM
Nc1ncc(-c2cn3c4c(nc3c(N3CCOCC3)n2)CCN(C2CCCCC2)C4)cn1 [2-81]	238 nM
Nc1ncc(-c2cn3c4c(nc3c(N3CCOCC3)n2)CCN(CC2CCCC2)C4)cn1 [2-80]	340 nM
c1cc(-c2cn3c4c(nc3c(N3CCOCC3)n2)CCN(Cc2ccncc2)C4)c2cn[nH]c2c1 [2-07]	852 nM
Nc1ncc(-c2cn3c4c(nc3c(N3CCOCC3)n2)CCN(Cc2ccncc2)C4)cn1 [2-107]	125 nM
Nc1ncc(-c2cn3c4c(nc3c(N3CCOCC3)n2)CCN(CC2CCCCC2)C4)cn1 [2-37]	363 nM
CC(C)CN1CCc2nc3c(N4CCOCC4)nc(-c4cnc(N)nc4)cn3c2C1 [2-35]	692 nM
CCOC(=O)N1CCc2nc3c(N4CCOCC4)nc(-c4cnc(N)c(C(F)(F)F)c4)c(Cl)n3c2C1 [2-33]	1780 nM
CCOC(=O)N1CCc2nc3c(N4CCOCC4)nc(-c4cncc(OC)c4)cn3c2C1 [2-23]	2700 nM
c1coc(CN2CCc3nc4c(N5CCOCC5)nc(-c5cccc6[nH]ncc56)cn4c3C2)c1 [2-11]	1780 nM
CC(C)C(=O)N1CCc2nc3c(N4CCOCC4)nc(-c4cnc(N)nc4)cn3c2C1 [2-43]	550 nM

SMILES	IC50
Nc1ncc(-c2cn3c4c(nc3c(N3CCOCC3)n2)CCN(Cc2ccnnc2)C4)cn1 [2-84]	175 nM
CCN1CCc2nc3c(N4CCOCC4)nc(-c4cnc(N)nc4)cn3c2C1 [2-45]	257 nM
COc1cccc(CN2CCc3nc4c(N5CCOCC5)nc(-c5cnc(N)nc5)cn4c3C2)c1 [2-95]	240 nM
CCCCS(=O)(=O)N1CCc2nc3c(N4CCOCC4)nc(-c4cnc(N)nc4)cn3c2C1 [2-55]	33 nM
CCCC(=O)N1CCc2nc3c(N4CCOCC4)nc(-c4cnc(N)nc4)cn3c2C1 [2-86]	94 nM
COC(=O)N1CCc2nc3c(N4CCOCC4)nc(-c4cnc(N)nc4)cn3c2C1 [2-48]	100 nM
CCCNC(=O)N1CCc2nc3c(N4CCOCC4)nc(-c4cnc(N)nc4)c(Cl)n3c2C1 [2-54]	148 nM
Nc1ncc(-c2nc(N3CCOCC3)c3nc4c(n3c2Cl)CN(S(=O)(=O)c2ccccc2)CC4)cn1 [2-58]	101 nM
c1cc(-c2cn3c4c(nc3c(N3CCOCC3)n2)CCN(Cc2ccoc2)C4)c2cn[nH]c2c1 [2-12]	708 nM
N#CCCCS(=O)(=O)N1CCc2nc3c(N4CCOCC4)nc(-c4cnc(N)nc4)cn3c2C1 [2-77]	19 nM
CCOC(=O)N1CCc2nc3c(N4CCOCC4)nc(-c4cnc(OC)nc4)c(Cl)n3c2C1 [2-27]	603 nM
CCOC(=O)N1CCc2nc3c(N4CCOCC4)nc(-c4cnc(OC)nc4)cn3c2C1 [2-19]	724 nM
CCOC(=O)N1CCc2nc3c(N4CCOCC4)nc(-c4cnc5[nH]ccc5c4)cn3c2C1 [2-20]	1050 nM
Oc1cccc(-c2cn3c4c(nc3c(N3CCOCC3)n2)CCNC4)c1 [2-02]	185 nM
c1ccc(CN2CCc3nc4c(N5CCOCC5)nc(-c5cccc6[nH]ncc56)cn4c3C2)nc1 [2-08]	439 nM
CS(=O)(=O)c1cccc(CN2CCc3nc4c(N5CCOCC5)nc(-c5cccc6[nH]ncc56)cn4c3C2)c1 [2-15]	3330 nM

same assay, conditions: quantitative results; read-out: PI3K α IC50

SMILES	IC50
Nc1ncc(-c2cn3c4c(nc3c(N3CCOCC3)n2)CCN(S(=O)(=O)C2CNC2)C4)cn1 [2-110]	7 nM
CC1(C)Cc2nc3c(N4CCOCC4)nc(-c4cnc(N)nc4)cn3c2C(O)C1 (stereo not shown) [5-05]	661 nM
Nc1ncc(-c2cn3c4c(nc3c(N3CCOCC3)n2)CN(C(=O)C2CC2)CC4)cn1 [6-24]	29 nM
N#CCCCS(=O)(=O)N1CCc2c(nc3c(N4CCOCC4)nc(-c4cnc(N)nc4)cn23)C1 [6-29]	31 nM
O=C1CCc2nc3c(N4CCOCC4)nc(-c4cccc(O)c4)cn3c2N1 [5-10]	409 nM
Nc1ncc(-c2cn3c4c(nc3c(N3CCOCC3)n2)CCN(Cc2nccs2)C4)cn1 [2-111]	139 nM
Nc1ncc(-c2cn3c4c(nc3c(N3CCOCC3)n2)CN(C(=O)C(F)(F)F)CC4)cn1 [6-14]	23 nM
CC(C)NC(=O)N1CCc2c(nc3c(N4CCOCC4)nc(-c4cnc(N)nc4)cn23)C1 [6-22]	100 nM
N#Cc1cccc(NC(=O)N2CCc3nc4c(N5CCOCC5)nc(-c5cnc(N)nc5)cn4c3C2)c1 [2-113]	81 nM
CS(=O)(=O)c1ccccc1CN1CCc2nc3c(N4CCOCC4)nc(-c4cnc(N)nc4)cn3c2C1 [2-117]	37 nM
CN(C)CCN1CCc2c(nc3c(N4CCOCC4)nc(-c4cnc(N)nc4)cn23)C1 [6-04]	178 nM
Nc1ncc(-c2cn3c4c(nc3c(N3CCOCC3)n2)CCN(C(=O)Nc2cc(Cl)cc(Cl)c2)C4)cn1 [2-112]	90 nM
CCS(=O)(=O)N1CCc2c(nc3c(N4CCOCC4)nc(-c4cnc(N)nc4)cn23)C1 [6-20]	22 nM
Nc1ncc(-c2cn3c4c(nc3c(N3CCOCC3)n2)CN(S(=O)(=O)C2CCOCC2)CC4)cn1 [6-28]	18 nM
Nc1ncc(-c2nc(N3CCOCC3)c3nc4c(n3c2Cl)CCN(Cc2ccc(F)cc2)C4)cn1 [6-12]	290 nM
COCCC(=O)N1CCc2c(nc3c(N4CCOCC4)nc(-c4cnc(N)nc4)cn23)C1 [6-35]	79 nM
